In patent US9597407B2, “Targeted antimicrobial moieties” (C3 Jian, Inc., priority 2009, dated 2017):
Entries after “also recorded” stand apart in the source; their conditions may differ. Square brackets hold non-standard residues; d marks the D form. Ends that are not written are not given here. Aib = CC(C)(N)C(=O)O

Tested on: bacteria
Assay: Binding of targeting peptides to microorganisms (Table 3)
Conditions: peptide binding in aqueous buffers that varied depending on peptide solubility; preferably 1x PBS

Substance | Target(s) (microorganism bound by the targeting peptide)
PF-711 (KTAGPTGTIYKTN; Peptide with targeting and/or antimicrobial activity) | S. mutans
PF-712 (QIYRHVHKVQAKSANLRLY; Peptide with targeting and/or antimicrobial activity) | S. mutans; also recorded: E. coli
PF-714 (FVVTQRMLRMYKK; Peptide with targeting and/or antimicrobial activity) | L. pneumophila
PF-716 (HGENHHHKSDEKDNDSSEKKD; Peptide with targeting and/or antimicrobial activity) | S. mutans
PF-717 (PQSEVTFENIYAPKANGGGLYGI; Peptide with targeting and/or antimicrobial activity) | E. coli
PF-720 (SLDMGK; Peptide with targeting and/or antimicrobial activity) | S. mutans
PF-724 (CYRFLTPKRPTRIS; Peptide with targeting and/or antimicrobial activity) | L. pneumophila
PF-727 (AYARCRHDYPFTLGQMQTH; Peptide with targeting and/or antimicrobial activity) | S. mutans; also recorded: E. coli
PF-728 (AIGQEQDRREYYYYSGYPYYY; Peptide with targeting and/or antimicrobial activity) | S. mutans; also recorded: E. coli
PF-731 (RHKLIRLPLSESVFCFLNNPKI; Peptide with targeting and/or antimicrobial activity) | L. pneumophila
PF-732 (DRPSQTTHHTLSSSRITGPS; Peptide with targeting and/or antimicrobial activity) | E. coli
PF-733 (VISRQMGSEAVLELFIIM; Peptide with targeting and/or antimicrobial activity) | S. mutans; also recorded: E. coli
PF-735 (YDPLFPNDKN; Peptide with targeting and/or antimicrobial activity) | S. mutans; also recorded: E. coli
PF-750 (AESSPAKTTA; Peptide with targeting and/or antimicrobial activity) | M. luteus; also recorded: C. jeikeium
PF-751 (AESSPAQETT; Peptide with targeting and/or antimicrobial activity) | S. epidermidis; also recorded: E. coli; also recorded: C. albicans; also recorded: C. jeikeium
PF-765 (YLYWEVEHKPIIAKRDAYYAQLRKQKEIEEGA; Peptide with targeting and/or antimicrobial activity) | S. epidermidis and M. luteus and E. coli and MRSA and E. faecalis and C. jeikeium
PF-766 (DAYYAQLRKQKEIEEGA; Peptide with targeting and/or antimicrobial activity) | S. epidermidis and M. luteus and C. albicans and MRSA and E. faecalis and C. jeikeium
PF-767 (DGKQGEPVALKPTDN; Peptide with targeting and/or antimicrobial activity) | S. epidermidis and M. luteus and E. coli and MRSA and S. pneumoniae and E. faecalis and C. jeikeium
PF-768 (GFRGGKRGGARG; Peptide with targeting and/or antimicrobial activity) | S. epidermidis; also recorded: S. pneumoniae; also recorded: E. faecalis; also recorded: C. jeikeium
PF-772 (TKESSS; Peptide with targeting and/or antimicrobial activity) | S. epidermidis and C. albicans and MRSA and S. pneumoniae and C. jeikeium
PF-773 (TLKESK; Peptide with targeting and/or antimicrobial activity) | S. epidermidis; also recorded: C. albicans; also recorded: C. jeikeium
PF-777 (PGADGKLAEASAAIARLVRS; Peptide with targeting and/or antimicrobial activity) | Mycobacteria spp.
PF-778 (MNLILTAHGT; Peptide with targeting and/or antimicrobial activity) | Mycobacteria spp.
PF-779 (IYGDFFNFYLCDISLKVNGLQPGGPVRTVKLFGQPTGRCTPQ; Peptide with targeting and/or antimicrobial activity) | Mycobacteria spp.
PF-780 (AVYDALVALAAAEHRAELATRDARAKDTYEKIGVHVVVAA; Peptide with targeting and/or antimicrobial activity) | Mycobacteria spp.
PF-781 (PLVVVNHRRAERSRG; Peptide with targeting and/or antimicrobial activity) | Mycobacteria spp.
PF-782 (TGPRRGIDLTSNRALSEVLDEGLELNSRK; Peptide with targeting and/or antimicrobial activity) | Mycobacteria spp.

Substance | Target(s) (microorganism bound by the targeting peptide)
PF-783 (FTSEVRGVFTYRVNKAGLITNMRGYWNLDMMTFGNQE; Peptide with targeting and/or antimicrobial activity) | Mycobacteria spp.
PF-784 (MAMTTVDNIVGLVIAVALMAFLFAALLFPEKF; Peptide with targeting and/or antimicrobial activity) | Mycobacteria spp.
PF-785 (MRPQHSPAGKAFVVKKITHEQS; Peptide with targeting and/or antimicrobial activity) | Mycobacteria spp.
PF-786 (LSERERRRLKRGII; Peptide with targeting and/or antimicrobial activity) | Mycobacteria spp.
PF-787 (MTERQRRALLKQHPEVVSWSDYLEKRKRRTGTAG; Peptide with targeting and/or antimicrobial activity) | Mycobacteria spp.
PF-788 (GLITVFAGTARILQLRRAAKKTHAAALR; Peptide with targeting and/or antimicrobial activity) | Mycobacteria spp.
PF-789 (PRGAQSGHG; Peptide with targeting and/or antimicrobial activity) | Mycobacteria spp.
PF-790 (PAGPDHLDQRDHR; Peptide with targeting and/or antimicrobial activity) | Mycobacteria spp.
PF-791 (IFLTTQNTDYSEHNAA; Peptide with targeting and/or antimicrobial activity) | S. mutans
PF-792 (ALHASGIQAI; Peptide with targeting and/or antimicrobial activity) | S. mutans
PF-793 (YTQ[Aib]NNASAYAMLLTNKDTVP; ends and bridges not checked) | S. mutans
PF-794 (NLYFENQGN; Peptide with targeting and/or antimicrobial activity) | S. mutans
PF-795 (ALHKSGIQVIADWVPDQIYN; Peptide with targeting and/or antimicrobial activity) | S. mutans
PF-796 (YTQSNIPTAYALMLSNKDSI; Peptide with targeting and/or antimicrobial activity) | S. mutans
PF-797 (WYYFDNNGYM; Peptide with targeting and/or antimicrobial activity) | S. mutans
PF-798 (ALHSKGIKVMADWVPDQMYA; Peptide with targeting and/or antimicrobial activity) | S. mutans
PF-799 (YTHYNTALSYALLLTNKSSVP; Peptide with targeting and/or antimicrobial activity) | S. mutans
PF-800 (WYYFDNNGYM; Peptide with targeting and/or antimicrobial activity) | S. mutans
PF-C003 (FCSVDHDVITIAADHVKQGAEA; Peptide with targeting and/or antimicrobial activity) | A. naeslundii; also recorded: P. gingivalis; also recorded: S. mutans
PF-C008 (AQPRRTWLVNFGEVPSPGLTNDGMPDH; Peptide with targeting and/or antimicrobial activity) | A. naeslundii
PF-C034 (HPMPITVRSRKPGPLTAPSEH; Peptide with targeting and/or antimicrobial activity) | S. mutans; also recorded: E. coli
PF-C045 (FREGMGWPLSNEGSPTAPLPKHRNQV; Peptide with targeting and/or antimicrobial activity) | A. naeslundii; also recorded: T. denticola
PF-C050 (QGLARPVLRRIPL; Peptide with targeting and/or antimicrobial activity) | A. naeslundii; also recorded: S. mutans
PF-C063 (SHFRKGD; Peptide with targeting and/or antimicrobial activity) | A. naeslundii; also recorded: F. nucleatum; also recorded: S. mutans
PF-C068 (LNLFASI; Peptide with targeting and/or antimicrobial activity) | A. naeslundii; also recorded: F. nucleatum; also recorded: S. mutans
PF-C080 (INIPGLF; Peptide with targeting and/or antimicrobial activity) | A. naeslundii; also recorded: F. nucleatum; also recorded: S. mutans
